According to patent US6737383B1, “Herbicidal oxadiazolidines” (priority 1999, dated 2004):

Tests used:
bedstraw = test: Test B pre/postemergence bedstraw; assay type: in vivo, Galium aparine; conditions: Preemergence; for Bedstraw plant response rating: scale 0 to 10, 0 is no effect, 10 is complete control
Summary of the method: (§1)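 Test chemicals in a non-phytotoxic solvent mixture with surfactant were sprayed preemergence onto planted seeds and postemergence onto plants 2 to 18 cm tall (1- to 4-leaf stage). After twelve to sixteen days in a greenhouse, injury was visually rated against untreated controls from 0 (no effect) to 10 (complete control).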

blackgrass = test: Test B pre/postemergence blackgrass; assay type: in vivo, Alopecurus myosuroides
Summary of the method: as §1

surinam grass = test: Test B pre/postemergence surinam grass; assay type: in vivo, Brachiaria decumbens
Summary of the method: as §1

cocklebur = test: Test B pre/postemergence cocklebur; assay type: in vivo, Xanthium strumarium
Summary of the method: as §1

corn = test: Test B pre/postemergence corn; assay type: in vivo, Zea mays
Summary of the method: as §1

crabgrass = test: Test B pre/postemergence crabgrass; assay type: in vivo, Digitaria sanguinalis
Summary of the method: as §1

giant foxtail = test: Test B pre/postemergence giant foxtail; assay type: in vivo, Setaria faberii
Summary of the method: as §1

morningglory = test: Test B pre/postemergence morningglory; assay type: in vivo, Ipomoea hederacea
Summary of the method: as §1

pigweed = test: Test B pre/postemergence pigweed; assay type: in vivo, Amaranthus retroflexus
Summary of the method: as §1

rape = test: Test B pre/postemergence rape; assay type: in vivo, Brassica napus
Summary of the method: as §1

soybean = test: Test B pre/postemergence soybean; assay type: in vivo, Glycine max
Summary of the method: as §1

sugar beet = test: Test B pre/postemergence sugar beet; assay type: in vivo, Beta vulgaris
Summary of the method: as §1

velvetleaf = test: Test B pre/postemergence velvetleaf; assay type: in vivo, Abutilon theophrasti
Summary of the method: as §1

wheat = test: Test B pre/postemergence wheat; assay type: in vivo, Triticum aestivum
Summary of the method: as §1

wild oat = test: Test B pre/postemergence wild oat; assay type: in vivo, Avena fatua
Summary of the method: as §1

purple nutsedge = test: Test B pre/postemergence purple nutsedge; assay type: in vivo, Cyperus rotundus
Summary of the method: as §1

rice = test: Test B flood test rice; assay type: in vivo, Oryza sativa
Summary of the method: (§2)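 Read-out is a visual response score from 0 (no effect) to 10 (complete control), assigned by comparison with untreated controls. Treatment was applied at the 2-leaf stage, and plants stayed in the greenhouse for twelve to sixteen days before scoring.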

smallflower flatsedge = test: Test B flood test smallflower flatsedge; assay type: in vivo, Cyperus difformis
Summary of the method: as §2

duck salad = test: Test B flood test duck salad; assay type: in vivo, Heteranthera limosa
Summary of the method: as §2

bamyardgrass = test: Test B flood test barnyardgrass; assay type: in vivo, Echinochloa crus-galli
Summary of the method: as §2

[1] = Postemergence, Rate 125 g/ha, scale 0 to 10, 0 is no effect, 10 is complete control
[2] = Postemergence, Rate 250 g/ha, scale 0 to 10
[3] = Postemergence, Rate 500 g/ha, scale 0 to 10, 0 is no effect, 10 is complete control
[4] = Preemergence, Rate 62 g/ha, scale of 0 to 10 where 0 is no effect and 10 is complete control
[5] = Preemergence, Rate 125 g/ha, scale 0 to 10, 0 is no effect, 10 is complete control
[6] = Preemergence, Rate 250 g/ha, scale 0 to 10, 0 is no effect, 10 is complete control
[7] = Preemergence, Rate 500 g/ha, scale 0 to 10, 0 is no effect, 10 is complete control
[8] = Rate 62 g/ha, Postemergence, scale 0 to 10 (0 no effect, 10 complete control)
[9] = Rate 62 g/ha, flood test species, Pre-emergence, visual evaluation after twelve to sixteen days
[10] = Rate 125 g/ha, under heading Pre-emergence, flood test species, visual evaluation after twelve to sixteen days
[11] = Rate 250 g/ha, Pre-emergence (flood test species), scale 0 to 10, 0 is no effect, 10 is complete control
[12] = Rate 500 g/ha, Pre-emergence section of Table B, 0 to 10 scale (0 no effect, 10 complete control)

In the case of `CC(C)N(C(=O)n1oc(=O)n(CCNC(=O)CCl)c1=O)c1ccccc1` [Compound 492], the “Plant response rating, Bedstraw” value (bedstraw; Rate 62 g/ha, scale of 0 to 10 where 0 is no effect and 10 is complete control) is reported as 0, the “Bedstraw plant response rating” value (bedstraw; Rate 125 g/ha) is reported as 0 and the “Bedstraw plant response rating” value (bedstraw; Rate 250 g/ha) is reported as 0. The “Bedstraw plant response rating” value (bedstraw; Rate 500 g/ha) was 0, the “Blackgrass plant response rating” value (blackgrass; [1]) was 0 and the “Blackgrass plant response rating” value (blackgrass; [2]) was 0. The “Plant response rating, Blackgrass” value (blackgrass; [3]) was 0, the “Plant response rating, Blackgrass” value (blackgrass; [4]) was 0 and the “Blackgrass plant response rating” value (blackgrass; [5]) was 0. The “Blackgrass plant response rating” value (blackgrass; [6]) was 0, the “Blackgrass plant response rating” value (blackgrass; [7]) was 0 and the “Blackgrass plant response rating” value (blackgrass; [8]) was 0. For the same compound, the “B. signalgrass plant response rating” value (surinam grass; [1]) was 0, the “B. signalgrass plant response rating” value (surinam grass; Postemergence, Rate 250 g/ha, scale 0 to 10, 0 no effect, 10 complete control) was 0 and the “Plant response rating, B. signalgrass” value (surinam grass; [3]) was 0. For the same compound, the “Plant response rating, B. signalgrass” value (surinam grass; [4]) was 0, the “B. signalgrass plant response rating” value (surinam grass; [5]) was 0 and the “B. signalgrass plant response rating” value (surinam grass; [6]) was 0. For the same compound, the “B. signalgrass plant response rating” value (surinam grass; [7]) was 0, the “B. signalgrass plant response rating” value (surinam grass; [8]) was 0 and the “Cocklebur plant response rating” value (cocklebur; [1]) was 0. For the same compound, the “Cocklebur plant response rating” value (cocklebur; [2]) was 0, the “Plant response rating, Cocklebur” value (cocklebur; [3]) was 0 and the “Plant response rating, Cocklebur” value (cocklebur; [4]) was 0. For the same compound, the “Cocklebur plant response rating” value (cocklebur; [5]) was 0, the “Cocklebur plant response rating” value (cocklebur; [6]) was 0 and the “Cocklebur plant response rating” value (cocklebur; [7]) was 0. For the same compound, the “Cocklebur plant response rating” value (cocklebur; [8]) was 0, the “Corn plant response rating” value (corn; [1]) was 0 and the “Corn plant response rating” value (corn; [2]) was 0. The “Plant response rating, Corn” value (corn; [3]) was 0, the “Plant response rating, Corn” value (corn; [4]) was 0 and the “Corn plant response rating” value (corn; [5]) was 0. The “Corn plant response rating” value (corn; [7]) was 0, the “Corn plant response rating” value (corn; [8]) was 0 and the “Crabgrass plant response rating” value (crabgrass; [2]) was 0. For the same compound, the “Plant response rating, Crabgrass” value (crabgrass; [3]) was 0, the “Plant response rating, Crabgrass” value (crabgrass; [4]) was 0 and the “Crabgrass plant response rating” value (crabgrass; [5]) was 0. The “Crabgrass plant response rating” value (crabgrass; [7]) was 3, the “Crabgrass plant response rating” value (crabgrass; [8]) was 0 and the “Giant foxtail plant response rating” value (giant foxtail; [1]) was 0. For the same compound, the “Plant response rating, Giant foxtail” value (giant foxtail; [3]) was 0, the “Plant response rating, Giant foxtail” value (giant foxtail; [4]) was 2 and the “Giant foxtail plant response rating” value (giant foxtail; [5]) was 0. The “Giant foxtail plant response rating” value (giant foxtail; [7]) was 9, the “Giant foxtail plant response rating” value (giant foxtail; [8]) was 0 and the “Morningglory plant response rating” value (morningglory; [1]) was 5. The “Plant response rating, Morningglory” value (morningglory; [3]) was 8, the “Plant response rating, Morningglory” value (morningglory; [4]) was 0 and the “Morningglory plant response rating” value (morningglory; [5]) was 0. For the same compound, the “Morningglory plant response rating” value (morningglory; [7]) was 0, the “Morningglory plant response rating” value (morningglory; [8]) was 0 and the “Redroot pigweed plant response rating” value (pigweed; [1]) was 0. For the same compound, the “Plant response rating, Redroot pigweed” value (pigweed; [3]) was 7, the “Plant response rating, Redroot pigweed” value (pigweed; [4]) was 0 and the “Redroot pigweed plant response rating” value (pigweed; [5]) was 0. The “Redroot pigweed plant response rating” value (pigweed; [7]) was 0, the “Redroot pigweed plant response rating” value (pigweed; [8]) was 0 and the “Rape plant response rating” value (rape; [1]) was 0. For the same compound, the “Plant response rating, Rape” value (rape; [3]) was 0, the “Plant response rating, Rape” value (rape; [4]) was 0 and the “Rape plant response rating” value (rape; [5]) was 0. For the same compound, the “Rape plant response rating” value (rape; [7]) was 0, the “Rape plant response rating” value (rape; [8]) was 0 and the “Soybean plant response rating” value (soybean; [1]) was 0. For the same compound, the “Plant response rating, Soybean” value (soybean; [3]) was 0, the “Plant response rating, Soybean” value (soybean; [4]) was 0 and the “Soybean plant response rating” value (soybean; [5]) was 0. For the same compound, the “Soybean plant response rating” value (soybean; [7]) was 0, the “Soybean plant response rating” value (soybean; [8]) was 0 and the “Sugarbeets plant response rating” value (sugar beet; [1]) was 0. For the same compound, the “Plant response rating, Sugarbeets” value (sugar beet; [3]) was 0, the “Plant response rating, Sugarbeets” value (sugar beet; [4]) was 0 and the “Sugarbeets plant response rating” value (sugar beet; [5]) was 0. The “Sugarbeets plant response rating” value (sugar beet; [7]) was 0, the “Sugarbeets plant response rating” value (sugar beet; [8]) was 0 and the “Velvetleaf plant response rating” value (velvetleaf; [1]) was 0. The “Plant response rating, Velvetleaf” value (velvetleaf; [3]) was 0, the “Plant response rating, Velvetleaf” value (velvetleaf; [4]) was 0 and the “Velvetleaf plant response rating” value (velvetleaf; [5]) was 0. The “Velvetleaf plant response rating” value (velvetleaf; [7]) was 4, the “Velvetleaf plant response rating” value (velvetleaf; [8]) was 0 and the “Wheat plant response rating” value (wheat; [1]) was 0. The “Plant response rating, Wheat” value (wheat; [3]) was 0, the “Plant response rating, Wheat” value (wheat; [4]) was 0 and the “Wheat plant response rating” value (wheat; [5]) was 0. For the same compound, the “Wheat plant response rating” value (wheat; [7]) was 0, the “Wheat plant response rating” value (wheat; [8]) was 0 and the “Wild oats plant response rating” value (wild oat; [1]) was 0. The “Plant response rating, Wild oats” value (wild oat; [3]) was 0, the “Plant response rating, Wild oats” value (wild oat; [4]) was 0 and the “Wild oats plant response rating” value (wild oat; [5]) was 0. For the same compound, the “Wild oats plant response rating” value (wild oat; [7]) was 0, the “Wild oats plant response rating” value (wild oat; [8]) was 0 and the “Nutsedge plant response rating” value (purple nutsedge; [1]) was 0. The “Plant response rating, Nutsedge” value (purple nutsedge; [3]) was 0, the “Plant response rating, Nutsedge” value (purple nutsedge; [4]) was 0 and the “Nutsedge plant response rating” value (purple nutsedge; [5]) was 0. For the same compound, the “Nutsedge plant response rating” value (purple nutsedge; [7]) was 0, the “Nutsedge plant response rating” value (purple nutsedge; [8]) was 0 and the “Plant response rating, Rice (0 to 10 scale, 0 is no effect, 10 is complete control)” value (rice; [9]) was 0. For the same compound, the “Rice plant response rating (0 to 10 scale, 0 is no effect, 10 is complete control)” value (rice; [10]) was 0, the “Rice plant response rating” value (rice; [11]) was 0 and the “Rice plant response rating” value (rice; [12]) was 0. The “Plant response rating, S. Flatsedge (0 to 10 scale, 0 is no effect, 10 is complete control)” value (smallflower flatsedge; [9]) was 0, the “S. Flatsedge plant response rating (0 to 10 scale, 0 is no effect, 10 is complete control)” value (smallflower flatsedge; [10]) was 0 and the “S. Flatsedge plant response rating” value (smallflower flatsedge; [11]) was 0. For the same compound, the “S. Flatsedge plant response rating” value (smallflower flatsedge; [12]) was 0, the “Plant response rating, Ducksalad (0 to 10 scale, 0 is no effect, 10 is complete control)” value (duck salad; [9]) was 0 and the “Ducksalad plant response rating (0 to 10 scale, 0 is no effect, 10 is complete control)” value (duck salad; [10]) was 0. The “Ducksalad plant response rating” value (duck salad; [11]) was 0, the “Ducksalad plant response rating” value (duck salad; [12]) was 0 and the “Plant response rating, Barnyardgrass (0 to 10 scale, 0 is no effect, 10 is complete control)” value (bamyardgrass; [9]) was 0. For the same compound, the “Barnyardgrass plant response rating (0 to 10 scale, 0 is no effect, 10 is complete control)” value (bamyardgrass; [10]) was 0, the “Barnyardgrass plant response rating” value (bamyardgrass; [11]) was 0 and the “Barnyardgrass plant response rating” value (bamyardgrass; [12]) was 0.
